Type in all cases: biochemical
The target of one assay is T1, PAD4 (Homo sapiens, UniProt Q9UM07).
T1 construct: made in house
The assay can be described thus: Inactivation kinetics, PAD4. The settings on record: for kinact/KI: a: single kobs determined, b: from a linear fit; for Fold PAD4 Selectivity: kinact/KI relative to least inhibited isozyme (1.0). The gist of the method:
(§1)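 PAD1, 2 or 4 (2.0 μM) or PAD3 (5.0 μM) preincubated at 37 °C with varying inhibitor in 50 mM HEPES, 10 mM CaCl2, 2 mM DTT, pH 7.6. Timed aliquots assayed 15 min with 10 mM BAEE (BAA for PAD3); citrulline quantified by COLDER.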

In a further assay the target is T2, PAD1 (Homo sapiens, UniProt Q9ULC6).
T2 construct: made in house
T2 sequence (Q9ULC6 1-663): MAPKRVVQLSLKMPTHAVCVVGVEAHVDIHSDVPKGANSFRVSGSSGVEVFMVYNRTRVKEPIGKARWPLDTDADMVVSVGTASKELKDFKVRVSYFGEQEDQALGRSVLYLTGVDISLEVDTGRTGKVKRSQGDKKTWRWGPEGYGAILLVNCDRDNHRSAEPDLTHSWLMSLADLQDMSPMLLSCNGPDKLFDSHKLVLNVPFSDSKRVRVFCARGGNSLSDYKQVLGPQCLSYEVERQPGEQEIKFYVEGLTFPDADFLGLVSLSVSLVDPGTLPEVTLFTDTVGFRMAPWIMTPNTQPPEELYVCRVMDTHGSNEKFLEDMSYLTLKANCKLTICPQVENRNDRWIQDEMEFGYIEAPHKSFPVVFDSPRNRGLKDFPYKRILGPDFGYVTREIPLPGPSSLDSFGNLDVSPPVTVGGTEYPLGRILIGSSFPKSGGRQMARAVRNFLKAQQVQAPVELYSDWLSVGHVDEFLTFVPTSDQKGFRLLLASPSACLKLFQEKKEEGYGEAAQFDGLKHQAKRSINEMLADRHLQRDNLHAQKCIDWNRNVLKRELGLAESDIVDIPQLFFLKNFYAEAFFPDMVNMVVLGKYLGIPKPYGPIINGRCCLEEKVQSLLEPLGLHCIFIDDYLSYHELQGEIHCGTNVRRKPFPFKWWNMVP
The assay can be described thus: Inactivation kinetics, PAD1. The settings on record: for kinact/KI: a: single kobs determined, b: from a linear fit; for Fold PAD1 Selectivity: kinact/KI relative to least inhibited isozyme (1.0). The method in brief:
as §1

A further assay concerns the target T3, PAD2 (Homo sapiens, UniProt Q9Y2J8).
T3 construct: made in house
Put plainly: Inactivation kinetics, PAD2. The settings on record: for kinact/KI: a: single kobs determined, b: from a linear fit, other footnotes: from kinact and KI; for Fold PAD2 Selectivity: kinact/KI relative to least inhibited isozyme (1.0); for Ki / kinact: PAD2, table footnote. The method in brief:
as §1

For a further assay, the target named is T4, PAD3 (Homo sapiens, UniProt Q9ULW8).
T4 construct: made in house
T4 sequence (Q9ULW8 1-664): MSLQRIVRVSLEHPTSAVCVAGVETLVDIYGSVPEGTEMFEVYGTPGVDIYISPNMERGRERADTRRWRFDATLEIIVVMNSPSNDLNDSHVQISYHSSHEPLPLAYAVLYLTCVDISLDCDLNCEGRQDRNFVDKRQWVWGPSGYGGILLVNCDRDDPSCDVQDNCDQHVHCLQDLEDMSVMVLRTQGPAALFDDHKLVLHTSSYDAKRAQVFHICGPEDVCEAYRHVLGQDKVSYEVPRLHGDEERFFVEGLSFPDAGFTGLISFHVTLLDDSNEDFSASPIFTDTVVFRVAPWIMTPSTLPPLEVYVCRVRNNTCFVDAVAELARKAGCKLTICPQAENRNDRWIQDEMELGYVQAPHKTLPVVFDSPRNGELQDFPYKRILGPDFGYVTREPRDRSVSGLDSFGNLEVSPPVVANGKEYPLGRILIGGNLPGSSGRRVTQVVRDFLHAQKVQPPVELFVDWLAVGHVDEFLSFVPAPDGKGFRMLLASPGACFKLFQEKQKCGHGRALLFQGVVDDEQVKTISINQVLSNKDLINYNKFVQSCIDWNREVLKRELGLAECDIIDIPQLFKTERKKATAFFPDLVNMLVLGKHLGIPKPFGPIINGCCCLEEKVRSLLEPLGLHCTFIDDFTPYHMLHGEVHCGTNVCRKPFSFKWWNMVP
The assay can be described thus: Inactivation kinetics, PAD3. The following applies: for kinact/KI: a: single kobs determined; for Fold PAD3 Selectivity: kinact/KI relative to least inhibited isozyme (1.0). The gist of the method: as §1

SMILES strings stand for the structures.

T3 sequence (Q9Y2J8 whole entry): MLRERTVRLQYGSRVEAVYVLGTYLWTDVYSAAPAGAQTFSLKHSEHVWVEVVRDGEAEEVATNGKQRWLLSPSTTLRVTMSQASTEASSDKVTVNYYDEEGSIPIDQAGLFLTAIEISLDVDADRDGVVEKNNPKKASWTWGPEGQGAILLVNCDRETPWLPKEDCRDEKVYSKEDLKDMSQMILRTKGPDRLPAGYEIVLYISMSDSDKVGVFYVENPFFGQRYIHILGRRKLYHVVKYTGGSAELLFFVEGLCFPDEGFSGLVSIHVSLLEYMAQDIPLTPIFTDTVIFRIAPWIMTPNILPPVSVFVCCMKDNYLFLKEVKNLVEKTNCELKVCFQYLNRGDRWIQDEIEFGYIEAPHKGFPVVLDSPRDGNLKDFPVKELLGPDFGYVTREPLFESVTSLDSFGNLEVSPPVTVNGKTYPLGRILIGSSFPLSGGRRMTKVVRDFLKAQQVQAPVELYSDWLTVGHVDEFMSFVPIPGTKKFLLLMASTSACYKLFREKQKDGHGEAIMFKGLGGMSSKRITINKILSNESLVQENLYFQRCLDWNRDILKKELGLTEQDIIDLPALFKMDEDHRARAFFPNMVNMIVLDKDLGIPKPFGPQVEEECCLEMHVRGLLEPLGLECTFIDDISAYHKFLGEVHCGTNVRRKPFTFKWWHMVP
T1 sequence (Q9UM07 whole entry): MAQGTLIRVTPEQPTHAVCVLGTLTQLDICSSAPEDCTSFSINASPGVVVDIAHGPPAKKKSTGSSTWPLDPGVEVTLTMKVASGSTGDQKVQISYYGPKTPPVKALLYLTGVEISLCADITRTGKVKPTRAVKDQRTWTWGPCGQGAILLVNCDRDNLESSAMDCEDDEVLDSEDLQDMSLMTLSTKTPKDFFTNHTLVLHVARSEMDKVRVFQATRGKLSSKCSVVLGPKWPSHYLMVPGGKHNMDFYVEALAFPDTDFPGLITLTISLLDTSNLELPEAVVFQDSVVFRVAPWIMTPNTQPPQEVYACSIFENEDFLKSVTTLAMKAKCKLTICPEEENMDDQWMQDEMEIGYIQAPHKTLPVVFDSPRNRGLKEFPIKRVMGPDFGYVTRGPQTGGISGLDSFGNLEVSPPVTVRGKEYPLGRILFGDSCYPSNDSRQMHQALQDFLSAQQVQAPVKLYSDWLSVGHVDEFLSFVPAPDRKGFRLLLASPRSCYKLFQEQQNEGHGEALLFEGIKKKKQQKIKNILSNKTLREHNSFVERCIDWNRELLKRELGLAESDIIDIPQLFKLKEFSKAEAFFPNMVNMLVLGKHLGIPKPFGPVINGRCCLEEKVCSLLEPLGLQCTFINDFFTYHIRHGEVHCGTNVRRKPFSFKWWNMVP

By kinact/KI is commonly meant the second-order rate constant of inactivation. Consider `Cn1c([C@H](CCCNC(=N)CF)NC(=O)c2cccc3c2C(=O)NC3)nc2ccccc21` [Compound 7c], for which, at PAD4, the kinact/KI was 48.5 M⁻¹ s⁻¹ and the “Fold PAD4 Selectivity” value was found to be 1.0 fold. Also, at PAD1, the kinact/KI is 1140 M⁻¹ s⁻¹ and the “Fold PAD1 Selectivity” value amounted to 25 fold. For the same compound, on PAD2, the kinact/KI is 413 M⁻¹ s⁻¹ and the “Fold PAD2 Selectivity” value was 8.9 fold. Also, on PAD3, the kinact/KI is 46.7 M⁻¹ s⁻¹ and the “Fold PAD3 Selectivity” value is listed as 1.0 fold.

In the case of `CCn1c([C@H](CCCNC(=N)CCl)NC(=O)c2cccc3c2C(=O)NC3)nc2ccccc21` [Compound 7f, N1-(3-oxoisoindoline)benzol-N5-(2-chloro-1-iminoethyl)-1-(1-ethyl-benzo[d]imidazol-2-yl)-L-ornithine], on PAD4, the kinact/KI was 210 M⁻¹ s⁻¹ and the “Fold PAD4 Selectivity” value was 1.0 fold. In addition, at PAD1, the second-order inactivation constant (kinact/KI) is 2200 M⁻¹ s⁻¹ and the “Fold PAD1 Selectivity” value was determined as 10 fold. In addition, on PAD2, the kinact/KI was 1010 M⁻¹ s⁻¹ and the “Fold PAD2 Selectivity” value turned out to be 4.8 fold. Also, on PAD3, the kinact/KI was 377 M⁻¹ s⁻¹ and the “Fold PAD3 Selectivity” value stood at 1.8 fold.

In the case of `CCN1Cc2cccc(C(=O)N[C@@H](CCCNC(=N)CCl)c3nc4ccccc4n3C)c2C1=O` [Compound 8d, N1-(2-ethyl-3-oxoisoindoline)benzoyl-N5-(2-chloro-1-iminoethyl)-1-(1-methyl-benzo[d]imidazol-2-yl)-L-ornithine], at PAD4, the kinact/KI was 75.7 M⁻¹ s⁻¹ and the “Fold PAD4 Selectivity” value came out at 1.2 fold. Besides, on PAD1, the kinact/KI was 1320 M⁻¹ s⁻¹ and the “Fold PAD1 Selectivity” value worked out at 21 fold. For the same compound, on PAD2, the kinact/KI was 1190 M⁻¹ s⁻¹ and the “Fold PAD2 Selectivity” value turned out to be 19 fold. At PAD3, the kinact/KI is 62.8 M⁻¹ s⁻¹ and the “Fold PAD3 Selectivity” value is given as 1.0 fold.

Regarding `CC(C)n1c([C@H](CCCNC(=N)CCl)NC(=O)c2ccccc2C(=O)OC(C)(C)C)nc2ccccc21` [Compound 9f, N1-(2-tert-butylcarboxy)benzoyl-N5-(2-chloro-1-iminoethyl)-1-(1-isopropyl-benzo[d]imidazol-2-yl)-L-omithine], at PAD4, the kinact/KI was 11.3 M⁻¹ s⁻¹ and the “Fold PAD4 Selectivity” value stood at 1.0 fold. Moreover, at PAD1, the kinact/KI was 56 M⁻¹ s⁻¹ and the “Fold PAD1 Selectivity” value was 4.9 fold. Further, at PAD2, the kinact/KI was 119 M⁻¹ s⁻¹ and the “Fold PAD2 Selectivity” value was 11 fold. In addition, on PAD3, the kinact/KI is 80 M⁻¹ s⁻¹ and the “Fold PAD3 Selectivity” value came to 7.1 fold.

As a reminder, the kinact is the rate constant of inactivation at saturating inhibitor. For `CCN1Cc2cccc(C(=O)N[C@@H](CCCNC(=N)CF)c3nc4c(OC)cccc4n3CC)c2C1=O` [Compound 8u, N1-(2-ethyl-3-oxoisoindoline)benzoyl-N5-(2-fluoro-1-iminoethyl)-1-(4-methoxy-1-ethyl-benzo[d]imidazol-2-yl)-L-ornithine], at PAD4, the second-order inactivation constant (kinact/KI) was 46.7 M⁻¹ s⁻¹ and the “Fold PAD4 Selectivity” value is given as 1.0 fold. On PAD1, the kinact/KI was 652 M⁻¹ s⁻¹ and the “Fold PAD1 Selectivity” value turned out to be 28 fold. Further, at PAD2, the Ki worked out at 23.4 µM, the kinact stood at 0.0218 s⁻¹, the kinact/KI was 933 M⁻¹ s⁻¹ and the “Fold PAD2 Selectivity” value is listed as 40 fold. Also, on PAD3, the kinact/KI was 23.3 M⁻¹ s⁻¹ and the “Fold PAD3 Selectivity” value is listed as 2.0 fold.

For `CC(C)n1c([C@H](CCCNC(=N)CF)NC(=O)c2ccccc2C(=O)OC(C)(C)C)nc2ccccc21` [Compound 9e, N1-(2-tert-butylcarboxy)benzoyl-N5-(2-fluoro-1-iminoethyl)-1-(1-isopropyl-benzo[d]imidazol-2-yl)-L-omithine], on PAD4, the kinact/KI is 2.67 M⁻¹ s⁻¹ and the “Fold PAD4 Selectivity” value stood at 1.0 fold. Further, on PAD1, the kinact/KI was 23.7 M⁻¹ s⁻¹ and the “Fold PAD1 Selectivity” value is 8.9 fold. Moreover, on PAD2, the kinact/KI was 50.2 M⁻¹ s⁻¹ and the “Fold PAD2 Selectivity” value stood at 19 fold. Further, at PAD3, the kinact/KI was 35 M⁻¹ s⁻¹ and the “Fold PAD3 Selectivity” value is listed as 13 fold.

Consider `CCOc1cccc2c1nc([C@H](CCCNC(=N)CCl)NC(=O)c1cccc3c1C(=O)NC3)n2C` [Compound 7n], for which, on PAD4, the kinact/KI was 40.2 M⁻¹ s⁻¹ and the “Fold PAD4 Selectivity” value came out at 1.0 fold. Also, at PAD1, the kinact/KI was 982 M⁻¹ s⁻¹ and the “Fold PAD1 Selectivity” value was determined as 24 fold. Moreover, at PAD2, the kinact/KI is 1200 M⁻¹ s⁻¹ and the “Fold PAD2 Selectivity” value amounted to 30 fold. In addition, on PAD3, the kinact/KI is 108 M⁻¹ s⁻¹ and the “Fold PAD3 Selectivity” value worked out at 2.7 fold.

Take `Cn1c([C@H](CCCNC(=N)CCl)NC(=O)c2cccc3c2C(=O)NC3)nc2ccccc21` [Compound 7d, N1-(3-oxoisoindoline)benzol-N5-(2-chloro-1-iminoethyl)-1-(1-methyl-benzo[d]imidazol-2-yl)-L-ornithine]: at PAD4, the kinact/KI was 398 M⁻¹ s⁻¹ and the “Fold PAD4 Selectivity” value is recorded as 1.0 fold. Moreover, at PAD1, the kinact/KI is 2430 M⁻¹ s⁻¹ and the “Fold PAD1 Selectivity” value is reported as 61 fold. For the same compound, on PAD2, the kinact/KI was 1220 M⁻¹ s⁻¹ and the “Fold PAD2 Selectivity” value was 3.1 fold. Further, at PAD3, the kinact/KI is 808 M⁻¹ s⁻¹ and the “Fold PAD3 Selectivity” value is recorded as 2.0 fold.

Turning to `CCOc1cccc2c1nc([C@H](CCCNC(=N)CF)NC(=O)c1cccc3c1C(=O)NC3)n2C` [Compound 7m], at PAD4, the second-order inactivation constant (kinact/KI) is 16.5 M⁻¹ s⁻¹ and the “Fold PAD4 Selectivity” value is 1.0 fold. On PAD1, the kinact/KI was 1070 M⁻¹ s⁻¹ and the “Fold PAD1 Selectivity” value is 65 fold. Moreover, on PAD2, the Ki was found to be 55.2 µM, the kinact came to 0.0868 s⁻¹, the kinact/KI was 1570 M⁻¹ s⁻¹ and the “Fold PAD2 Selectivity” value is 95 fold. Also, on PAD3, the kinact/KI is 20 M⁻¹ s⁻¹ and the “Fold PAD3 Selectivity” value is 1.2 fold.

For `N=C(CCl)NCCC[C@H](NC(=O)c1ccccc1)c1nc2ccccc2[nH]1` [Compound 5b, N1-benzoyl-N5-(2-chloro-1-iminoethyl)-1-(1H-benzo[d]imidazol-2-yl)-L-ornithine], at PAD4, the kinact/KI is 254 M⁻¹ s⁻¹ and the “Fold PAD4 Selectivity” value is 31 fold. Also, at PAD1, the kinact/KI was 132 M⁻¹ s⁻¹ and the “Fold PAD1 Selectivity” value was 16 fold. Also, at PAD2, the kinact/KI was 8.33 M⁻¹ s⁻¹ and the “Fold PAD2 Selectivity” value was found to be 1.0 fold. Besides, on PAD3, the kinact/KI was 163 M⁻¹ s⁻¹ and the “Fold PAD3 Selectivity” value is reported as 20 fold.

Regarding `COc1cccc2c1nc([C@H](CCCNC(=N)CF)NC(=O)c1ccc(-c3ccccc3)cc1)n2C` [Compound 5m, N1-[1,4′-Phenyl]benzoyl-N5-(2-fluoro-1-iminoethyl)-1-(4-methoxy-1-methyl-benzo[d]imidazol-2-yl)-L-omithine], on PAD4, the kinact/KI was 13.2 M⁻¹ s⁻¹ and the “Fold PAD4 Selectivity” value was found to be 1.0 fold. Besides, at PAD1, the kinact/KI is 31.2 M⁻¹ s⁻¹ and the “Fold PAD1 Selectivity” value turned out to be 2.4 fold. Moreover, on PAD2, the kinact/KI was 132 M⁻¹ s⁻¹ and the “Fold PAD2 Selectivity” value came out at 10 fold. For the same compound, at PAD3, the kinact/KI is 48.3 M⁻¹ s⁻¹ and the “Fold PAD3 Selectivity” value came to 3.7 fold.

On to `N=C(CF)NCCC[C@H](NC(=O)c1ccc(-c2ccc(F)cc2)cc1)c1nc2cc(F)c(F)cc2[nH]1` [Compound 5s, N1-4′-F-[1,1′-Phenyl]benzoyl-N5-(2-fluoro-1-iminoethyl)-1-(5,6-difluoro-1H-benzo[d]imidazol-2-yl)-L-omithine], for which, at PAD4, the kinact/KI was 67.3 M⁻¹ s⁻¹ and the “Fold PAD4 Selectivity” value is reported as 3.7 fold. Besides, at PAD1, the kinact/KI is 29.8 M⁻¹ s⁻¹ and the “Fold PAD1 Selectivity” value was determined as 1.6 fold. In addition, at PAD2, the kinact/KI is 23.7 M⁻¹ s⁻¹ and the “Fold PAD2 Selectivity” value was determined as 1.3 fold. On PAD3, the kinact/KI was 18.3 M⁻¹ s⁻¹ and the “Fold PAD3 Selectivity” value is recorded as 1.0 fold.

The record behind these values is US11208386B2, “Inhibitors of protein arginine deiminases (PADs) and methods of preparation and use thereof” (University of Massachusetts, priority 2016, dated 2021).
